pKd: −log10 of the molar value. “Also recorded” adds a separate entry of the source.
Key:
GFP-fusion CD163-SRCR2 = molecular target: T1, GFP-fusion CD163-SRCR2 (Sus scrofa, UniProt Q2VL90); assay: Microscale thermophoresis (MST), GFP-SRCR2; format: binding, porcine
T1 construct: The purified GFP, GFP-fused SRCR2 or SRCR5 proteins were mixed with serially diluted compounds; made in house; host or cells: Escherichia coli BL21 (DE3)
T1 sequence (Q2VL90 158-258 limits assumed): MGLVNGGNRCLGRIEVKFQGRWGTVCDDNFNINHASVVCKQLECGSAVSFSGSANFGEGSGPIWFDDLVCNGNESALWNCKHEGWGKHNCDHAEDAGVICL
Method: (§1) The recombinant pET28b-GFP-SRCR2/SRCR5 constructs were transformed into Escherichia coli strain BL21 (DE3) (New England Biolabs, MA, USA). The transformed clones were cultured at 37° C. in LB broth with […] kanamycin, induced by adding 1 mM isopropyl β-D-1-thiogalactopyranoside at optical density of 0.6-0.8, and then incubated at 37° C. for 3 h. For protein purification, cells were pelleted and resuspended in xTractor Buffer containing DNAse I, lysozyme solution, and Protease Inhibitor Cocktail (Takara Bio USA, Inc., CA). The suspension was sonicated and centrifuged. The supernatant was incubated with equilibrated TALON Metal Affinity Resin (Takara Bio USA, Inc., CA, USA) and then were eluted from resin with the elution buffer (pH 7.0, 150 mM imidazole, 50 mM NaH2PO4, and 300 mM NaCl). The eluted proteins were concentrated and with buffer exchanged to phosphate-buffered saline (pH 7.4) containing 0.05% Tween-20 (PBST) using Protein Concentrator PES, 10 kD MWCO (Pierce Biotechnology, PA, USA).
(§2) The purified GFP, GFP-fused SRCR2 or SRCR5 proteins were mixed with serially diluted compounds. The mixtures were loaded to capillaries and the affinity was measured by Monolith NT.115 (NanoTemper Technologies, Inc., CA, USA) at corresponding MST power with the blue channel.

GFP-fusion CD163-SRCR5 = molecular target: T2, GFP-fusion CD163-SRCR5 (Sus scrofa, UniProt Q2VL90); assay: Microscale thermophoresis (MST), GFP-SRCR5; format: binding, porcine; conditions: read-out: dissociation constant (Kd)
T2 construct: The purified GFP, GFP-fused SRCR2 or SRCR5 proteins were mixed with serially diluted compounds; made in house; host or cells: Escherichia coli BL21 (DE3)
Method: as §1, §2

[1] = molecular target: T3, PPI between PRRSV GP4 and CD163-SRCR5 domain (Sus scrofa, UniProt Q2VL90); assay: BiFC assay GP4/SRCR5; format: cell-based, porcine CD163; PRRSV VR2332; conditions: for Average GP4 (relative fluorescence intensity, SRCR5/GP4 BiFC): 5 μM, HEK293T, 24 h after transfection, relative to NC (DMSO), n=3, 5 µM
T3 construct: SRCR5 domain of porcine CD163 receptor was amplified from cDNA of pig cells; expressed in transfected cells; host or cells: HEK293T
Method: (§3) HEK293T cells were cultivated in 6-well plates in FP medium and transfected with 1 μg XpBiFC-VN155 (I152L)-SRCR5 and 1 μg pBiFC-VC155-GP2/GP4 using Fugene6. After 4 h, cells were digested with 0.05% Typsin-EDTA (ThermoFisher Scientific, MA, USA)) and passaged to 48-well plates which were coated with EmbryoMax 0.1% Gelatin Solution (Sigma-Aldrich, MO, USA) and preloaded with 5 μM B7 analogues. Fluorescence images were taken at 24 h after transfection and fluorescence intensity was measured by image J.

[2] = molecular target: T4, PPI between PRRSV glycoprotein GP2a and CD163-SRCR5 (Sus scrofa, UniProt Q2VL90); assay: BiFC assay GP2a/SRCR5; format: cell-based, porcine CD163; PRRSV VR2332; conditions: for Average GP2a (relative fluorescence intensity, SRCR5/GP2a BiFC): 5 μM, HEK293T, 24 h after transfection, relative to NC (DMSO) = 1.00, n=3, 5 µM
T4 construct: SRCR5 domain of porcine CD163 receptor was amplified from cDNA of pig cells; expressed in transfected cells; host or cells: HEK293T
Method: as §3

GFP [3] = assay: Microscale thermophoresis (MST), GFP; format: binding
Method: as §1, §2

GFP [4] = molecular target: T5, GFP; assay: Microscale thermophoresis (MST) assay: association of B7 with purified GFP (control protein); format: binding; conditions: Monolith NT.115, blue channel, GFP alone (control), values represent Mean, N=3
T5 construct: made in house
Method: Values represent Mean, N=3.
as §1
The purified GFP, GFP-fused SRCR2 or SRCR5 proteins were mixed with serially diluted compounds. The mixtures were loaded to capillaries and the affinity was measured by Monolith NT.115 (NanoTemper Technologies, Inc., CA, USA) at corresponding MST power with the blue channel. […]

T4 sequence (Q2VL90 477-577): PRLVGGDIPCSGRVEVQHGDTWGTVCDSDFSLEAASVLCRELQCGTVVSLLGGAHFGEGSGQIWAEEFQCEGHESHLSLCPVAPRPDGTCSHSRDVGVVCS
T3 sequence (Q2VL90 477-577): as above
T2 sequence (Q2VL90 477-577 limits assumed): as the sequence (Q2VL90 477-577) above

SMILES	association with GFP-SRCR2 (in words) (GFP-fusion CD163-SRCR2)	pKd (GFP-fusion CD163-SRCR5)	Average GP4 (relative fluorescence intensity, SRCR5/GP4 BiFC) ([1]; listed as H5, 1440 min)	Average GP4 (relative fluorescence intensity, SRCR5/GP4 BiFC) ([1]; listed as PC, 1440 min)	inhibition at 5 µM ([1]; HEK-293T, read-out: reduction of the YFP fluorescence signal compared with NC (inhibition in GP4/SRCR5 BiFC)) [%]	Average GP2a (relative fluorescence intensity, SRCR5/GP2a BiFC) ([2]; listed as H5, 1440 min)	Average GP2a (relative fluorescence intensity, SRCR5/GP2a BiFC) ([2]; listed as PC, 1440 min)	inhibition of the PPI between PRRSV GP2a and CD163 SRCR5 (in words) ([2]; positive control)	association with GFP (in words) (GFP [3])	pKd (GFP [4])
Cc1cc(F)ccc1S(=O)(=O)Nc1nc2ccccc2nc1Nc1cccc(S(=O)(=O)N2CCOCC2)c1 [B7]	little or no association; also recorded: did not interact	4.49	0.06	0.24	> 70	0.15	0.02	significantly inhibited	little or no association	–
Cc1cc(F)ccc1S(=O)(=O)Nc1nc2ccccc2nc1Nc1cccc(S(=O)(=O)N2CCOCC2)c1 [Compound B7]	–	–	–	–	–	–	–	–	–	2.68
